# ChEMBL document CHEMBL3885881, “DrugMatrix”
# Species on record: Rattus norvegicus
# Assay: DrugMatrix - Regimen: Daily Repeat
# Type: toxicity, organism-based, Sprague-Dawley
# Design: regimen Daily Repeat, gender Male, age 6-8 weeks
# Settings: in vivo, po, route oral GAVAGE, vehicle .5 % CMC; for ABSOLUTE BASOPHIL / ABSOLUTE EOSINOPHIL / ABSOLUTE LYMPHOCYTE / ABSOLUTE MONOCYTE / ABSOLUTE SEGMENTED NEUTROPHIL / BASOPHIL / EOSINOPHIL / ERYTHROCYTE COUNT / HEMATOCRIT / HEMOGLOBIN / LEUKOCYTE COUNT / LYMPHOCYTE / MEAN CORPUSCULAR HEMOGLOBIN / MEAN CORPUSCULAR HEMOGLOBIN CONCENTRATION / MEAN CORPUSCULAR VOLUME / MONOCYTE / NEUTROPHIL / NUCLEATED RED BLOOD CELLS / PLATELET COUNT: tissue Blood; for ALANINE AMINOTRANSFERASE / ALBUMIN / ALKALINE PHOSPHATASE / ASPARTATE AMINOTRANSFERASE / BLOOD UREA NITROGEN / CARBON DIOXIDE / CHLORIDE / CHOLESTEROL / CREATINE PHOSPHOKINASE / CREATININE / GLUCOSE / LACTATE DEHYDROGENASE / LIPASE / PHOSPHORUS / POTASSIUM / SODIUM / TOTAL BILIRUBIN / TOTAL PROTEIN / URIC ACID: tissue Plasma
# [1] = 0 mg/kg, 72 h, dose level Control, time 3 day
# [2] = 0 mg/kg, 120 h, dose level Control, time 5 day
# [3] = 1200 mg/kg, 72 h, dose level High, time 3 day
compound,measurement,setting,value
CCC[C@@H]1C[C@@H](C(=O)N[C@@H]([C@H]2O[C@H](SC)[C@H](O)[C@@H](O)[C@H]2O)[C@@H](C)O)N(C)C1 [LINCOMYCIN],ABSOLUTE BASOPHIL,[1],0 CELLS/uL
same,ABSOLUTE EOSINOPHIL,[1],0 CELLS/uL
same,ABSOLUTE LYMPHOCYTE,[1],12269.67 CELLS/uL
same,ABSOLUTE MONOCYTE,[1],160.33 CELLS/uL
same,ABSOLUTE SEGMENTED NEUTROPHIL,[1],970 CELLS/uL
same,BASOPHIL,[1],0%
same,EOSINOPHIL,[1],0%
same,ERYTHROCYTE COUNT,[1],5.76 x10E6/uL
same,HEMATOCRIT,[1],36.57%
same,HEMOGLOBIN,[1],14.22 G/DL
same,LEUKOCYTE COUNT,[1],13.4 x10E3/uL
same,LYMPHOCYTE,[1],91.67%
same,MEAN CORPUSCULAR HEMOGLOBIN,[1],24.67 pg
same,MEAN CORPUSCULAR HEMOGLOBIN CONCENTRATION,[1],38.85 G/DL
same,MEAN CORPUSCULAR VOLUME,[1],63.52 fL
same,MONOCYTE,[1],1.17%
same,NEUTROPHIL,[1],7.17%
same,NUCLEATED RED BLOOD CELLS,[1],0.33 /100WBC
same,PLATELET COUNT,[1],1250.83 x10E3/uL
same,ALANINE AMINOTRANSFERASE,[1],49.17 u/L
same,ALBUMIN,[1],4.33 G/DL
same,ALKALINE PHOSPHATASE,[1],378.5 u/L
same,ASPARTATE AMINOTRANSFERASE,[1],82.17 u/L
same,BLOOD UREA NITROGEN,[1],15 mg/dL
same,CARBON DIOXIDE,[1],34.33 mmol/L
same,CHLORIDE,[1],99.17 MEQ/L
same,CHOLESTEROL,[1],71.17 mg/dL
same,CREATINE PHOSPHOKINASE,[1],258.67 u/L
same,CREATININE,[1],0.18 mg/dL
same,GLUCOSE,[1],142.67 mg/dL
same,LACTATE DEHYDROGENASE,[1],154.33 u/L
same,LIPASE,[1],9 u/L
same,PHOSPHORUS,[1],11.67 mg/dL
same,POTASSIUM,[1],7.13 MEQ/L
same,SODIUM,[1],142.22 MEQ/L
same,TOTAL BILIRUBIN,[1],0.18 mg/dL
same,TOTAL PROTEIN,[1],5.77 G/DL
same,URIC ACID,[1],1.55 mg/dL
same,ABSOLUTE BASOPHIL,[2],0 CELLS/uL
same,ABSOLUTE EOSINOPHIL,[2],23.33 CELLS/uL
same,ABSOLUTE LYMPHOCYTE,[2],14943.67 CELLS/uL
same,ABSOLUTE MONOCYTE,[2],32 CELLS/uL
same,ABSOLUTE SEGMENTED NEUTROPHIL,[2],1084.33 CELLS/uL
same,BASOPHIL,[2],0%
same,EOSINOPHIL,[2],0.17%
same,ERYTHROCYTE COUNT,[2],5.71 x10E6/uL
same,HEMATOCRIT,[2],35.28%
same,HEMOGLOBIN,[2],14.27 G/DL
same,LEUKOCYTE COUNT,[2],16.08 x10E3/uL
same,LYMPHOCYTE,[2],93%
same,MEAN CORPUSCULAR HEMOGLOBIN,[2],25.02 pg
same,MEAN CORPUSCULAR HEMOGLOBIN CONCENTRATION,[2],40.43 G/DL
same,MEAN CORPUSCULAR VOLUME,[2],61.82 fL
same,MONOCYTE,[2],0.17%
same,NEUTROPHIL,[2],6.67%
same,NUCLEATED RED BLOOD CELLS,[2],0.33 /100WBC
same,PLATELET COUNT,[2],1274 x10E3/uL
same,ALANINE AMINOTRANSFERASE,[2],54.17 u/L
same,ALBUMIN,[2],4.22 G/DL
same,ALKALINE PHOSPHATASE,[2],373.17 u/L
same,ASPARTATE AMINOTRANSFERASE,[2],81.83 u/L
same,BLOOD UREA NITROGEN,[2],16.67 mg/dL
same,CARBON DIOXIDE,[2],30.33 mmol/L
same,CHLORIDE,[2],99 MEQ/L
same,CHOLESTEROL,[2],71 mg/dL
same,CREATINE PHOSPHOKINASE,[2],273.5 u/L
same,CREATININE,[2],0.22 mg/dL
same,GLUCOSE,[2],141.83 mg/dL
same,LACTATE DEHYDROGENASE,[2],153.67 u/L
same,LIPASE,[2],10.33 u/L
same,PHOSPHORUS,[2],11.38 mg/dL
same,POTASSIUM,[2],7.08 MEQ/L
same,SODIUM,[2],142.75 MEQ/L
same,TOTAL BILIRUBIN,[2],0.18 mg/dL
same,TOTAL PROTEIN,[2],6.1 G/DL
same,URIC ACID,[2],1.67 mg/dL
same,ABSOLUTE BASOPHIL,[3],0 CELLS/uL
same,ABSOLUTE EOSINOPHIL,[3],0 CELLS/uL
same,ABSOLUTE LYMPHOCYTE,[3],14618 CELLS/uL
same,ABSOLUTE MONOCYTE,[3],0 CELLS/uL
same,ABSOLUTE SEGMENTED NEUTROPHIL,[3],1248.67 CELLS/uL
same,BASOPHIL,[3],0%
same,EOSINOPHIL,[3],0%
same,ERYTHROCYTE COUNT,[3],5.99 x10E6/uL
same,HEMATOCRIT,[3],37.8%
same,HEMOGLOBIN,[3],15 G/DL
same,LEUKOCYTE COUNT,[3],15.87 x10E3/uL
same,LYMPHOCYTE,[3],92.33%
same,MEAN CORPUSCULAR HEMOGLOBIN,[3],25.1 pg
same,MEAN CORPUSCULAR HEMOGLOBIN CONCENTRATION,[3],39.73 G/DL
same,MEAN CORPUSCULAR VOLUME,[3],63.2 fL
same,MONOCYTE,[3],0%
same,NEUTROPHIL,[3],7.67%
same,NUCLEATED RED BLOOD CELLS,[3],0 /100WBC
same,PLATELET COUNT,[3],1182.33 x10E3/uL
same,ALANINE AMINOTRANSFERASE,[3],58.67 u/L
same,ALBUMIN,[3],4.3 G/DL
same,ALKALINE PHOSPHATASE,[3],350.33 u/L
same,ASPARTATE AMINOTRANSFERASE,[3],86.33 u/L
same,BLOOD UREA NITROGEN,[3],17.33 mg/dL
same,CARBON DIOXIDE,[3],33.33 mmol/L
same,CHLORIDE,[3],99 MEQ/L
same,CHOLESTEROL,[3],100.67 mg/dL
same,CREATINE PHOSPHOKINASE,[3],190.67 u/L
same,CREATININE,[3],0.21 mg/dL
same,GLUCOSE,[3],155.33 mg/dL
same,LACTATE DEHYDROGENASE,[3],170.67 u/L
same,LIPASE,[3],9.67 u/L
same,PHOSPHORUS,[3],12.27 mg/dL
same,POTASSIUM,[3],7.02 MEQ/L
same,SODIUM,[3],145.6 MEQ/L
same,TOTAL BILIRUBIN,[3],0.23 mg/dL
same,TOTAL PROTEIN,[3],6.23 G/DL
same,URIC ACID,[3],1.33 mg/dL
